{
  "source": "ChEMBL document CHEMBL1156696",
  "about": "“Structure activity relationships of quinoline-containing c-Met inhibitors” (Eur J Med Chem, 2008)",
  "key": {"[1]": {"target": "T1, Hepatocyte growth factor receptor (Homo sapiens, UniProt P08581)", "T1 sequence (P08581 whole entry)": "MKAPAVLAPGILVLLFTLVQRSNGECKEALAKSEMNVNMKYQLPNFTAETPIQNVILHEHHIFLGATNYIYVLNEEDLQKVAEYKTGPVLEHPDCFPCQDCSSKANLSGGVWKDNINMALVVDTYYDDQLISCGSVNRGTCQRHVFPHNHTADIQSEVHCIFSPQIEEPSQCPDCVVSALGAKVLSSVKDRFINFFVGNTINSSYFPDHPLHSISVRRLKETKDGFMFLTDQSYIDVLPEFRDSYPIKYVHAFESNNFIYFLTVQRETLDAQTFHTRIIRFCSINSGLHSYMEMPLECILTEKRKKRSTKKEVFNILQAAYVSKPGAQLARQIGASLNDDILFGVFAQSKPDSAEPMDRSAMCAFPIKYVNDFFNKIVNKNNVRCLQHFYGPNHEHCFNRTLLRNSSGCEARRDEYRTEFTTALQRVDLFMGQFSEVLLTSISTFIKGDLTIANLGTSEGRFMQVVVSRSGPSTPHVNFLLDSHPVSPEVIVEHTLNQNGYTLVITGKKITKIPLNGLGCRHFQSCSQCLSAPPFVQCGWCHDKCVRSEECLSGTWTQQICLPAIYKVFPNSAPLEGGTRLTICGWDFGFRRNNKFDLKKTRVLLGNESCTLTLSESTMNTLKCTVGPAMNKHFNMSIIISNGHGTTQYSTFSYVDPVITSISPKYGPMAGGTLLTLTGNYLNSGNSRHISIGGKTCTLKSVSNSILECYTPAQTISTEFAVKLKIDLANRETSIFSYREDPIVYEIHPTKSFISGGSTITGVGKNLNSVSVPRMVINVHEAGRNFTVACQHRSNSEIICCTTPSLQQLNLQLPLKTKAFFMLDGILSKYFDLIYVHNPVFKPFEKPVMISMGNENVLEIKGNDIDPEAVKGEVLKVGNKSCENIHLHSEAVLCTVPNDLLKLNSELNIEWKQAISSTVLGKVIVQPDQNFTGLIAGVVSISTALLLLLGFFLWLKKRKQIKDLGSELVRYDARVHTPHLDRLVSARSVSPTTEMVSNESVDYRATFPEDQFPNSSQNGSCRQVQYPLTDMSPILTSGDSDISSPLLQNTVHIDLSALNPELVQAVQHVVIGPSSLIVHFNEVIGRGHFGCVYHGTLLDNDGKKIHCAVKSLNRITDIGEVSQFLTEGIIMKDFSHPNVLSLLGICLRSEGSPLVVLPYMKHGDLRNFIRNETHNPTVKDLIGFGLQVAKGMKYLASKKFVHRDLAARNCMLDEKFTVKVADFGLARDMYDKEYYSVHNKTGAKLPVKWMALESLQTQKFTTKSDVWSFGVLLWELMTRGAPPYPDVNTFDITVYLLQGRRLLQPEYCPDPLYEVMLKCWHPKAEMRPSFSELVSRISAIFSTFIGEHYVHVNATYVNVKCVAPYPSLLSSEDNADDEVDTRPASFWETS", "test": "Inhibition of human activated c-Met at 1 uM by PK/LDH coupled kinetic assay"}, "[2]": {"target": "T1, Hepatocyte growth factor receptor", "test": "Inhibition of human activated c-Met by PK/LDH coupled kinetic assay"}},
  "data": [
    {"smiles": "COc1cc2nccc(Oc3ccc(N)nc3)c2cc1OC", "values": [
      {"measurement": "inhibition", "setting": "[1]", "value": 2, "unit": "%"}
    ]},
    {"smiles": "COc1cc2nccc(Oc3ccc(NC(=O)N4CCNCC4)nc3)c2cc1OC", "values": [
      {"measurement": "Ki", "setting": "[2]", "value": "> 30", "unit": "µM"}
    ]}
  ]
}
